# Several values for one entry are separate records, joined by “and”; a condition that tells them apart may be missing. Equal entries are not always repeated. Entries after “also recorded” stand apart in the source; their conditions may differ.
# Assays:
# [1] = test system: detoxified opiate subjects; assay: Double-blind placebo-controlled cross-over trial in detoxified opiate subjects (Table 1A, comparative); type: in vivo, human; details: weekly; for Abstinence: scale 0-10, 10 = total abstinence
# Text: (ii) To permit their optimal comparison by the same test subject, treatments A & C were both given for the same and longest length of time available before the trial was terminated. […] The actual drug components of treatments A, B and C for each trial subject, and the duration of each treatment are also shown in Table 1 in each case.
# (v) Scoring of key parameters was based on questionaries completed by the subject. […] The subject's answers were assigned a value and the score for all 10 questions totalled (out of 40). A total of 13+ is indicated as alcohol dependent, 8+ as a hazardous drinker and less than 8 a safe drinker, with 0 indicating abstinence. Levels of Craving, tendency to Relapse and degree of Abstinence were rated by the subject on a scale of 0-10, with 0,0 indicating absence of craving and relapse respectively, and 10 indicating total abstinence from alcohol and volatile inhalant.
# […] […] However, many opiate (or other substance) addicts also have a secondary addiction to alcohol or use alcohol excessively when they are unable to obtain the opiate of addiction. The present invention can also be used to treat such multi-substance addicted subjects.
# [2] = test system: alcohol / volatile inhalant dependent patients; assay: Open Alc/Inhalant therapeutic (N + A + CCB) drug dependence trial (Example 7, Table 2); type: in vivo, human; details: A666 × 3 mg/d; for Key Parameters: Audit Score: score out of 40; for Key Parameters: Abstinence / Key Parameters: Craving / Key Parameters: Relapse: scale 0-10
# Experimental: (v) Scoring of key parameters was based on questionaries completed by the subject. For the audit score, an initial base-line questionnaire preceding treatment and subsequently, a similar weekly questionnaire, following each week of treatment was conducted by the trial clinician and trial subject. The subject's answers were assigned a value and the score for all 10 questions totalled (out of 40). A total of 13+ is indicated as alcohol dependent, 8+ as a hazardous drinker and less than 8 a safe drinker, with 0 indicating abstinence. Levels of Craving, tendency to Relapse and degree of Abstinence were rated by the subject on a scale of 0-10, with 0,0 indicating absence of craving and relapse respectively, and 10 indicating total abstinence from alcohol and volatile inhalant.
# Two patients were treated in an open trial with a daily dose of naltrexone, acamprosate and verapamil. Key parameters were evaluated as per Example 6. The results are presented in Table 2, depicting treatment duration, patient characteristics, key parameters and improved parameters and side-effects.
# [3] = in vivo; cited from earlier work
# [4] = test system: detoxified alcoholic patients; assay: N-of-1 double-blind placebo-controlled cross-over clinical trial in detoxified alcoholic patients (Example 6, Table 1); type: in vivo, human; details: 5 mg, in two subjects
# Experimental: The patient characteristics, their randomised active and control treatments and their outcomes, and the key and ancillary parameters on which the progressive comparative weekly safeties and efficacies of the active and control treatments were determined for each of the 6 double-blind trial subjects are all shown in Table 1.
# (i) Each trial subject received sequentially 3 different but operationally-related individual treatments, each on an oral once daily basis, labelled, for convenience, A (which may randomly be an active or control treatment), B (wash-out) and C (which may also randomly be a control or […])
# (ii) To permit their optimal comparison by the same test subject, treatments A & C were both given for the same and longest length of time available before the trial was terminated. Patient and clinician bias in interpretation was minimised or excluded by giving these treatments on a randomised double-blind basis which ensured that neither knew if the active or control treatment was given first or last. Thus sometimes, labelled treatment A or C was the active or control treatment and vice versa. The actual drug components of treatments A, B and C for each trial subject, and the duration of each treatment are also shown in Table 1 in each case. […]
compound,measurement,setting,value
O=C1CC[C@@]2(O)[C@H]3Cc4ccc(O)c5c4[C@@]2(CCN3CC2CC2)[C@H]1O5 [N25 + Pl],Relapse,"[1]; scale 0-10, 0 = absence, listed as N5 + Pl",0
same,Abstinence,[1]; listed as N5 + Pl,10
same,Patient's View,[1],Progress 0
same,Patient's View,[1]; assessment date 03/11/00,Progress +/−
same,Patient's View,[1]; assessment date 15/11/00,Progress +
same,Patient's View,[1]; listed as N5 + Pl,Progress ++
same,Patient's View,"[1]; listed as NAll25 + Pl, assessment date 03/11/00",Progress+/−
same,Patient's View,"[1]; listed as NAll25 + Pl, assessment date 15/11/00",Progress+
CC(=O)NCCCS(=O)(=O)O [A666 × 3],Key Parameters: Audit Score,"[2]; subject 1 (Alc 20+ Units/d), 01/07/00",37
same,Improved (1) Ancillary Parameters: Energy,"[2]; subject 1, 01/07/00",0
same,Improved (1) Ancillary Parameters: In-Control,"[2]; subject 1, 01/07/00",0
same,Improved (1) Ancillary Parameters: Thinking,"[2]; subject 1, 01/07/00",0
same,Patient's View,"[2]; subject 1, 01/07/00",0
same,Side-effects,"[2]; subject 1, 01/07/00",Nil
same,Key Parameters: Abstinence,"[2]; subject 1, 01/07/00",0
same,Key Parameters: Craving,"[2]; subject 1, 01/07/00",8
same,Key Parameters: Relapse,"[2]; subject 1, 01/07/00",10
same,Improved (1) Ancillary Parameters: Energy,"[2]; subject 1, 09/07/00",0
same,Improved (1) Ancillary Parameters: Thinking,"[2]; subject 1, 09/07/00",0
same,Patient's View,"[2]; subject 1, 09/07/00",Progress+
same,Side-effects,"[2]; subject 1, 09/07/00",Nil
same,Key Parameters: Abstinence,"[2]; subject 1, 09/07/00",1
same,Key Parameters: Craving,"[2]; subject 1, 09/07/00",7
same,Key Parameters: Relapse,"[2]; subject 1, 09/07/00",8
same,Key Parameters: Audit Score,"[2]; subject 1, 09/07/00",37
"O=C1CC[C@@]2(O)[C@H]3Cc4ccc(O)c5c4[C@@]2(CCN3CC2CC2)[C@H]1O5 [N25, Naltrexone]",Abstinence,[1],10 and 8
same,Patient's View,[1],Progress+; also recorded: Progress++; also recorded: Progress+++
CCOC(=O)C1=C(COCCN)NC(C)=C(C(=O)OC)C1c1ccccc1Cl (centres unmarked) [amlodipine],time to reach a plateau plasma concentration,[3],5 to 10 days
same,Side-effects of the administered dose,[4],a number of initial transient side-effects
